The NIST ThermoML archive (doi:10.1016/j.jct.2014.03.006)
± gives the expanded uncertainty stated by the source.

Assay: Boiling temperature at pressure P
Settings: Liquid, Ebulliometric method (Recirculating still)

SMILES: CCC/C=C/C=O [(E)-2-hexenal]
- Boiling temperature at pressure P (24.5 kPa): 100.4 ± 0.3 °C
- Boiling temperature at pressure P (34 kPa): 110 ± 0.3 °C
- Boiling temperature at pressure P (43.5 kPa): 117.2 ± 0.3 °C
- Boiling temperature at pressure P (53 kPa): 123.8 ± 0.3 °C
- Boiling temperature at pressure P (62.5 kPa): 129.5 ± 0.3 °C
- Boiling temperature at pressure P (72 kPa): 134.6 ± 0.3 °C
- Boiling temperature at pressure P (81.5 kPa): 139 ± 0.3 °C
- Boiling temperature at pressure P (91 kPa): 143.0 ± 0.4 °C
- Boiling temperature at pressure P (101.3 kPa): 147.6 ± 0.4 °C
- Boiling temperature at pressure P (110 kPa): 150.7 ± 0.4 °C
- Boiling temperature at pressure P (119.5 kPa): 154.0 ± 0.4 °C
- Boiling temperature at pressure P (129 kPa): 157.2 ± 0.4 °C
- Boiling temperature at pressure P (138.5 kPa): 160.0 ± 0.4 °C
- Boiling temperature at pressure P (148 kPa): 162.8 ± 0.4 °C
- Boiling temperature at pressure P (157.5 kPa): 165.2 ± 0.4 °C
- Boiling temperature at pressure P (167 kPa): 168 ± 0.4 °C
- Boiling temperature at pressure P (176.5 kPa): 170.2 ± 0.4 °C
- Boiling temperature at pressure P (186 kPa): 172.2 ± 0.4 °C
- Boiling temperature at pressure P (190 kPa): 173.1 ± 0.4 °C

SMILES: CCCCCC=O [hexanal]
- Boiling temperature at pressure P (24.5 kPa): 85.0 ± 0.3 °C
- Boiling temperature at pressure P (34 kPa): 94.2 ± 0.3 °C
- Boiling temperature at pressure P (43.5 kPa): 101.1 ± 0.3 °C
- Boiling temperature at pressure P (53 kPa): 107 ± 0.3 °C
- Boiling temperature at pressure P (62.5 kPa): 112.2 ± 0.3 °C
- Boiling temperature at pressure P (72 kPa): 116.8 ± 0.3 °C
- Boiling temperature at pressure P (81.5 kPa): 121 ± 0.3 °C
- Boiling temperature at pressure P (91 kPa): 124.7 ± 0.3 °C
- Boiling temperature at pressure P (101.3 kPa): 128.8 ± 0.3 °C
- Boiling temperature at pressure P (110 kPa): 131.8 ± 0.3 °C
- Boiling temperature at pressure P (119.5 kPa): 134.8 ± 0.3 °C
- Boiling temperature at pressure P (129 kPa): 137.5 ± 0.3 °C
- Boiling temperature at pressure P (138.5 kPa): 140.2 ± 0.3 °C
- Boiling temperature at pressure P (148 kPa): 143 ± 0.3 °C
- Boiling temperature at pressure P (157.5 kPa): 145.5 ± 0.3 °C
- Boiling temperature at pressure P (167 kPa): 147.7 ± 0.3 °C
- Boiling temperature at pressure P (176.5 kPa): 149.7 ± 0.3 °C
- Boiling temperature at pressure P (186 kPa): 151.8 ± 0.3 °C
- Boiling temperature at pressure P (190 kPa): 152.7 ± 0.3 °C

SMILES: CCOC(=O)C(C)CC (configuration not stated) [ethyl 2-methylbutanoate]
- Boiling temperature at pressure P (24.5 kPa): 89.0 ± 0.2 °C
- Boiling temperature at pressure P (34 kPa): 98.1 ± 0.3 °C
- Boiling temperature at pressure P (43.5 kPa): 105.2 ± 0.3 °C
- Boiling temperature at pressure P (53 kPa): 111.1 ± 0.3 °C
- Boiling temperature at pressure P (62.5 kPa): 116.4 ± 0.3 °C
- Boiling temperature at pressure P (72 kPa): 121 ± 0.3 °C
- Boiling temperature at pressure P (81.5 kPa): 124.8 ± 0.3 °C
- Boiling temperature at pressure P (91 kPa): 128.7 ± 0.3 °C
- Boiling temperature at pressure P (101.3 kPa): 132.5 ± 0.3 °C
- Boiling temperature at pressure P (110 kPa): 135.6 ± 0.3 °C
- Boiling temperature at pressure P (119.5 kPa): 138.6 ± 0.3 °C
- Boiling temperature at pressure P (129 kPa): 141.4 ± 0.3 °C
- Boiling temperature at pressure P (138.5 kPa): 144.2 ± 0.3 °C
- Boiling temperature at pressure P (148 kPa): 147.0 ± 0.3 °C
- Boiling temperature at pressure P (157.5 kPa): 149.4 ± 0.3 °C
- Boiling temperature at pressure P (167 kPa): 151.7 ± 0.3 °C
- Boiling temperature at pressure P (176.5 kPa): 154 ± 0.3 °C
- Boiling temperature at pressure P (186 kPa): 156.0 ± 0.3 °C
- Boiling temperature at pressure P (190 kPa): 156.8 ± 0.3 °C
